Data set [1] can be described thus: Pharmacokinetics of AE-PM components and their phase II metabolites in rat plasma after single oral administration (UHPLC-MS/MS, with and without sulfatase hydrolysis). The settings on record: for AUC(0-inf) / CL/F / Cmax / MRT inf / Tmax / Vd/F / half-life: rat, po; for CL/F: CLz/F; for MRT inf: MRT (0-∞); for Vd/F: Vz/F; for half-life: t1/2z; for Conversion into phase II metabolites: rats.
Experimental: (§1) To explore the pharmacokinetic properties of PM following intragastric administration in rats, a rapid and sensitive method involving the use of UHPLC-MS/MS (Agilent 6460 series, Agilent Technologies, Santa Clara, CA, United States) was developed and validated for the simultaneous quantification of nine active components in rat plasma. The quantification was conducted in ESI negative ionization mode, and mass spectrometry conditions were set up as follows: capillary voltage of 3500 V; gas flow at 12 L/min; nebulizer of 40 psi; the gas temperature of 350°C; and delta EMV (−) of 400. A 10 µl extraction sample was injected into the column (Agilent SB-C18 column, 2.1 mm × 50 mm, 1.8 mm) and eluted at 0.4 ml/min with a gradient elution of water (with 0.1% v/v formic acid) (A) and acetonitrile (B) (0–1.5 min, 20–30% B; 1.5–3.5 min, 30–50% B; 3.five to four min, 50–55%B; 4–6.5 min, 55–85% B; 6.5–6.6 min, 85–20% B and re-equilibration for 3 min).
(§2) A 50 µl aliquot of blood plasma sample was placed in a centrifuge tube with 50 µl of puerarin (internal standard, IS) solution (1,000 ng/ml), followed by 150 µl methanol, which was mixed for 5 min. Then, the mixture was centrifuged for 10 min at 15,000 rpm (4°C), the supernatant was transferred to a clean centrifuge tube and dried with nitrogen gas at room temperature. The residue was resuspended in 100 µl of methanol, then centrifuged at 15,000 rpm (4°C, 10 min), and 10 µl of the supernatant was analyzed by UHPLC-MS/MS.
(§3) Additional plasma samples (50 µl) were enzymatically hydrolyzed with 50 µl of enzyme solution (65.86 mg of sulfatase, dissolved in 2 ml of sodium acetate buffer, pH 5.0) for phase II metabolite quantification, in accordance with our previous study ([Ding et al., 2012]; [Yi et al., 2018]). After being vortex mixed for 5 min, the mixture was incubated at 37°C for 30 min and returned to room temperature. Subsequently, the samples were processed as described above.
(§4) The remaining 21 rats of the three groups were treated with a single oral dose of AE-PM (50.4 g PM/kg). […] Blood was collected in heparinized tubes at 5, 15, 30, 45, 60, 120, 240, 360, 480, 720, 1,440, 2,880, and 4,320 min after administration. The blood samples were centrifuged at 5,000 rpm (4°C) for 7 min, and the supernatant plasma was harvested.
(§5) All data were presented as mean ± standard deviation (SD). A one-way analysis of variance (ANOVA) was used to compare the data between three groups. The differences were considered to be statistically significant when p < 0.05 and highly significant when the p-value was <0.01 or p < 0.001. Spearman rank correlation coefficient, calculated by bivariate correlation analysis was used to evaluate the correlation between AUC values and expression levels of metabolic enzyme and transporters. All statistical analyses were performed with the SPSS Statistics system (SPSS vision 21.0). Pharmacokinetic data analyses were performed using DAS 2.1.1 software (Mathematical Pharmacology Professional Committee of China, Shanghai, China).

Another data set in a line: in vivo. The note with it: rat, po, 50 g/kg; for MRT inf: MRT (0-∞); for MRT inf / Tmax: oral AE-PM 50 g/kg, plasma, n = 6.
The mark [2] stands for this setting: plasma, 50 g/kg, ANIT group rats, oral AE-PM 50 g/kg, plasma, n = 6.
[3] abbreviates: plasma, 50 g/kg, CCl4 group rats, oral AE-PM 50 g/kg, plasma, n = 6.
Where [4] appears, read: plasma, 50 g/kg, Normal group rats, oral AE-PM 50 g/kg, plasma, n = 6.

From publication PMC8245786, “Comparative Studies on Multi-Component Pharmacokinetics of Polygonum multiflorum Thunb Extract After Oral Administration in Different Rat Models” (Frontiers in Pharmacology, 2021) come the findings set out here.

Experimental for in vivo: as §1, §2, §3, §4, §5

One may read the AUC(0-inf) as total exposure, with the tail of the curve extrapolated. What is called CL/F is the apparent clearance, not corrected for the fraction that reaches the circulation. As usually defined, the Cmax is the highest concentration seen after dosing. What is called MRT inf is the average time that molecules of a dose stay in the body. Broadly, the Tmax is the time from dosing to the highest level. One may read the Vd/F as the apparent distribution volume after extravascular dosing. What is called half-life is the time in which the quantity being followed falls by half. Turning to `Oc1cc(O)c2c(c1)O[C@H](c1ccc(O)c(O)c1)[C@@H](O)C2` [Catechin, catechin], in data set [1] (setting [2]), the AUC(0-inf) turned out to be 11600 ng·h/mL, the apparent clearance CL/F was 28.8 mL/min/kg, the Cmax turned out to be 84.5 ± 8.85 ng/mL and the MRT inf is 253 ± 3.75 h. Further, in data set [1] (setting [2]), the Tmax was determined as 1 ± 0.742 h, the Vd/F worked out at 442 ± 16.9 L/kg and the half-life is 177.3 ± 1.09 h. Moreover, in data set [1] (setting [3]), the area under the curve AUC(0-inf) came out at 1500 ng·h/mL, the apparent clearance (CL/F) is 222 mL/min/kg, the Cmax was 453 ± 8.94 ng/mL and the MRT inf worked out at 11.2 ± 1.23 h. In data set [1] (setting [3]), the time of peak concentration (Tmax) was found to be 0.5 ± 0.0408 h, the Vd/F came out at 72.2 ± 12.6 L/kg and the half-life is 3.76 ± 0.816 h. In data set [1] (setting [4]), the AUC(0-inf) came out at 12600 ng·h/mL, the CL/F is 26.4 mL/min/kg, the maximum concentration (Cmax) came to 251 ± 11.8 ng/mL and the MRT inf came to 146 ± 11.3 h. Further, in data set [1] (setting [4]), the Tmax was 0.25 ± 0.0234 h, the Vd/F is 237 ± 18.3 L/kg and the half-life is 104 ± 14.9 h. The “Conversion into phase II metabolites” value in data set [1] (oral AE-PM, plasma) was “partially converted”.
In the case of `COc1cc(O)c2c(c1)C(=O)c1cc(C)cc(O[C@@H]3O[C@H](CO)[C@@H](O)[C@H](O)[C@H]3O)c1C2=O` [P-glu, physcion-8-O-β-D-glucoside], in data set [1] (setting [2]), the AUC(0-inf) came out at 7050 ng·h/mL, the apparent clearance CL/F was 47.3 mL/min/kg, the Cmax was determined as 223 ± 13.2 ng/mL and the MRT inf amounted to 18.8 ± 3.36 h. For the same molecule, in data set [1] (setting [2]), the time of peak concentration (Tmax) is 1 ± 0.232 h, the Vd/F amounted to 13.2 ± 1.86 L/kg and the half-life was 3.22 ± 0.473 h. Besides, in data set [1] (setting [3]), the total exposure AUC(0-inf) is 1450 ng·h/mL, the CL/F was 230 mL/min/kg, the highest concentration (Cmax) is 211 ± 3.04 ng/mL and the mean residence time MRT inf was 7.48 ± 1.42 h. In addition, in data set [1] (setting [3]), the time to peak (Tmax) was found to be 0.25 ± 0.0661 h, the Vd/F was found to be 81.3 ± 5.01 L/kg and the half-life is 4.08 ± 0.453 h. Besides, in data set [1] (setting [4]), the AUC(0-inf) stood at 2270 ng·h/mL, the CL/F was 147 mL/min/kg, the Cmax worked out at 148 ± 8.95 ng/mL and the mean residence time (MRT inf) came out at 15.9 ± 2.36 h. Moreover, in data set [1] (setting [4]), the Tmax amounted to 0.75 ± 0.049 h, the Vd/F is 143 ± 11.1 L/kg and the half-life is 11.3 ± 1.85 h.
With `O=C1c2cccc(O)c2C(=O)c2c(O)cc(CO)cc21` [Aloe-emodin, aloe-emodin], in data set [1] (CCl4 group rats, oral AE-PM 50 g/kg, plasma, n = 6), the t1/2z is given as 3.448 ± 0.177 h. For the same molecule, in data set [1] (setting [2]), the total exposure AUC(0-inf) is 41700 ng·h/mL, the CL/F is 7.98 mL/min/kg, the highest concentration (Cmax) stood at 1570 ng/mL and the mean residence time (MRT inf) is 198 ± 3.17 h. In data set [1] (setting [2]), the time to peak (Tmax) amounted to 0.25 ± 0.032 h, the Vd/F is 96.7 ± 8.35 L/kg and the half-life is 140 ± 8.29 h. Besides, in data set [1] (setting [3]), the AUC(0-inf) was 6620 ng·h/mL, the apparent clearance (CL/F) was 50.4 mL/min/kg, the maximum concentration (Cmax) was found to be 2600 ng/mL and the mean residence time (MRT inf) was 6.47 ± 0.422 h. In data set [1] (setting [3]), the time of peak concentration (Tmax) turned out to be 0.25 ± 0.052 h and the Vd/F came to 15 ± 1.2 L/kg. In data set [1] (setting [4]), the area under the curve AUC(0-inf) was 3560 ng·h/mL, the CL/F was 93.6 mL/min/kg, the Cmax amounted to 1270 ng/mL and the MRT inf is 14 ± 1.42 h. For the same molecule, in data set [1] (setting [4]), the Tmax was found to be 0.167 ± 0.051 h, the Vd/F turned out to be 28.7 ± 1.55 L/kg and the half-life is 3.54 ± 0.185 h. Also, in data set [1] (plasma, 50.4 g PM/kg, different groups (normal, ANIT, CCl4), oral AE-PM), the Tmax is under 0.5 h.
With `OC[C@H]1O[C@@H](Oc2c(O)cc(O)cc2/C=C/c2ccc(O)cc2)[C@H](O)[C@@H](O)[C@@H]1O` [TSG, 2,3,5,4'-tetrahydroxystilbene-2-O-β-D-glucoside], in data set [1] (ANIT model rats, oral AE-PM), the “Increase of AUC (0-∞) compared with the normal group” value (shortened to “Increase of AUC (0-∞)”) is on record as 2,548.17% and the “Increase of Cmax compared with the normal group” value (“Increase of Cmax” for short) is 560.12%. In data set [1] (CCl4 model rats, oral AE-PM), the “Increase of AUC (0-∞)” value is 802.14% and the “Increase of Cmax” value is given as 236.59%. Besides, in data set [1] (setting [2]), the AUC(0-inf) stood at 341000 ng·h/mL, the CL/F is 0.983 mL/min/kg, the highest concentration (Cmax) was 99300 ng/mL and the MRT inf stood at 6.03 ± 1.93 h. In addition, in data set [1] (setting [2]), the time of peak concentration (Tmax) is 0.5 ± 0.0278 h, the Vd/F was 0.221 ± 0.0206 L/kg and the half-life is 2.61 ± 0.612 h. Further, in data set [1] (setting [3]), the AUC(0-inf) stood at 116000 ng·h/mL, the apparent clearance CL/F is 2.87 mL/min/kg, the Cmax came to 50600 ng/mL and the MRT inf came out at 3.4 ± 1.04 h. Also, in data set [1] (setting [3]), the Tmax was 0.75 ± 0.136 h, the Vd/F was 0.698 ± 0.073 L/kg and the half-life was 2.81 ± 0.878 h. For the same molecule, in data set [1] (setting [4]), the AUC(0-inf) stood at 12900 ng·h/mL, the apparent clearance CL/F is 25.9 mL/min/kg, the Cmax was determined as 15000 ng/mL and the mean residence time (MRT inf) came out at 4.54 ± 1.23 h. In data set [1] (setting [4]), the Tmax came out at 0.25 ± 0.0293 h, the Vd/F is 4.37 ± 0.711 L/kg and the half-life was 1.95 ± 0.806 h. Besides, the “Conversion into phase II metabolites” value in data set [1] (oral AE-PM, plasma) is “partially converted”.
On to `O=C(O)c1cc(O)c(O)c(O)c1` [Gallic acid, gallic acid], for which the mean residence time (MRT inf) in the data set “in vivo” (ANIT group rats) came to 55.7 ± 4.22 h; in “in vivo” (CCl4 group rats), 3.06 ± 0.12 h; in “in vivo” (Normal group rats) it was 12.8 ± 1.02 h. For the same molecule, the Tmax was 0.75 ± 0.0231 h in “in vivo” (ANIT group rats), 0.25 ± 0.0641 h in the data set “in vivo” (CCl4 group rats) and 0.25 ± 0.0728 h in “in vivo” (Normal group rats). The Vd/F in the data set “in vivo” (Vz/F) stood at 205 ± 2.2 L/kg.
Take `Cc1cc(O[C@@H]2O[C@H](CO)[C@@H](O)[C@H](O)[C@H]2O)c2c(c1)C(=O)c1cc(O)cc(O)c1C2=O` [E-glu, emodin-8-O-β-D-glucoside]: in data set [1] (ANIT model rats, oral AE-PM), the “Decrease of AUC (0-∞) compared with the normal group” value is listed as 8.25% and the “Decrease of Cmax compared with the normal group” value stood at 22.98%. Besides, in data set [1] (CCl4 model rats, oral AE-PM), the “Increase of AUC (0-∞)” value is reported as 655.90% and the “Increase of Cmax” value was 620.15%. For the same molecule, in data set [1] (setting [2]), the AUC(0-inf) is 1720 ± 170 ng·h/mL, the CL/F is 193 mL/min/kg, the highest concentration (Cmax) was determined as 633 ± 50 ng/mL and the MRT inf was determined as 2.81 ± 0.872 h. Besides, in data set [1] (setting [2]), the time of peak concentration (Tmax) came to 1 ± 0.248 h, the Vd/F stood at 78.3 ± 4.4 L/kg and the half-life was 4.68 ± 1.1 h. For the same molecule, in data set [1] (setting [3]), the AUC(0-inf) is 14200 ng·h/mL, the apparent clearance (CL/F) is 23.5 mL/min/kg, the Cmax was 5920 ng/mL and the mean residence time MRT inf came out at 2.44 ± 1.17 h. For the same molecule, in data set [1] (setting [3]), the time to peak (Tmax) is 1 ± 0.289 h, the Vd/F worked out at 8.13 ± 1.75 L/kg and the half-life was 4 ± 1.4 h. In addition, in data set [1] (setting [4]), the total exposure AUC(0-inf) amounted to 1880 ± 538 ng·h/mL, the apparent clearance CL/F is 177 mL/min/kg, the Cmax turned out to be 821 ± 85 ng/mL and the MRT inf was 3.88 ± 1.52 h. Also, in data set [1] (setting [4]), the Tmax worked out at 0.25 ± 0.0301 h, the Vd/F was determined as 60.2 ± 9.45 L/kg and the half-life was 3.92 ± 0.219 h.
`COc1cc(O)c2c(c1)C(=O)c1cc(C)cc(O)c1C2=O` [Physcion, physcion]: in data set [1] (ANIT model rats, oral AE-PM), the “Decrease of AUC (0-∞) compared with the normal group” value is reported as 49.77% and the “Decrease of Cmax compared with the normal group” value was 29.48%. Besides, in data set [1] (CCl4 model rats, oral AE-PM), the “Increase of AUC (0-∞)” value amounted to 29.24% and the “Increase of Cmax” value was 173.72%. For the same molecule, the “Levels of glucuronidation and sulfation conjugates in plasma” value in data set [1] (oral AE-PM, sulfatase hydrolysis) is on record as “too low to allow pharmacokinetic analysis”. In data set [1] (setting [2]), the total exposure AUC(0-inf) is 14000 ng·h/mL, the CL/F was 23.9 mL/min/kg, the Cmax stood at 1510 ng/mL and the mean residence time MRT inf is 37.6 ± 2.27 h. In data set [1] (setting [2]), the Tmax was determined as 0.75 ± 0.0238 h, the Vd/F was determined as 59.8 ± 3.41 L/kg and the half-life is 28.9 ± 1.5 h. Further, in data set [1] (setting [3]), the AUC(0-inf) worked out at 36000 ng·h/mL, the CL/F is 9.27 mL/min/kg, the Cmax is 5840 ng/mL and the mean residence time MRT inf came to 10 ± 1.14 h. In data set [1] (setting [3]), the time to peak (Tmax) stood at 1 ± 0.0675 h, the Vd/F turned out to be 7.05 ± 1.11 L/kg and the half-life is 8.78 ± 1.6 h. In data set [1] (setting [4]), the AUC(0-inf) turned out to be 27800 ng·h/mL, the apparent clearance (CL/F) was 12 mL/min/kg, the Cmax amounted to 2140 ng/mL and the MRT inf stood at 26.7 ± 1.52 h. Moreover, in data set [1] (setting [4]), the time of peak concentration (Tmax) was 0.5 ± 0.094 h, the Vd/F came out at 17.6 ± 2.41 L/kg and the half-life was 17 ± 1.87 h.
